For one experiment, the target named is T1, NADPH/TrxR1/Trx1 (Homo sapiens, UniProt P10599).
T1 sequence (P10599 1-105): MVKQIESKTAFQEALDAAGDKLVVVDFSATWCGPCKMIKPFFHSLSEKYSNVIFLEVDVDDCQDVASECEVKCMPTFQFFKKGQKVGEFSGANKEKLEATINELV
Put plainly: Enzymatic activation assay: NADPH/TrxR1/Trx1 system. It counts as biochemical. Conditions: NADPH/TrxR1 plus Trx1, 37° C., 6 h. From the text:
(§1) This assay (see FIG. 2) examined the resistance of disulfide-based reduction-triggered compounds to the major cellular enzymatic systems that maintain redox homeostasis and are capable of reducing disulfides, evaluated in a cell-free assay, to see if these compounds can be useful for selective enzyme-triggered release.
(§2) Assay conditions: A black 96-well plate with black bottom was charged with solutions of fluorophore-releasing reduction-triggered probes that are compounds of the invention (P1, P2) or that are not compounds of the invention and reveal the performance of prior art systems (X19) (50 μL; 40 μM in aq. TE buffer (pH 7.4) and 4 μL DMSO). Separately, master mixes (30 μL in aq. TE buffer (pH 7.4)) containing mixtures of the proteins human recombinant thioredoxin 1 (Trx1, 0.166-16.66 μM) or thioredoxin 2 (Trx2, 3.3 μM), or human recombinant glutaredoxin 1 (“Grx1”, 3.3 μM) or glutaredoxin 2 (Grx2, 3.3 μM) and/or oxidoreductases human recombinant thioredoxin reductase 1 (TrxR1, 0.07 μM), the thioredoxin reductase Secys498Cys mutant (TrxR1-U498C, 0.07 μM), thioredoxin reductase 2 (TrxR2, 0.07 μM) or human recombinant glutathione reductase (GR, 0.07 μM), and/or GSH (3.3 μM) were prepared. Note that TrxR1 (U498C) has decreased reducing power compared to TrxR1 due to the mutation of the key vicinal selenothiol/thiol into a vicinal dithiol, but it still reduces Trx1. […]
(§3) Data Representation: (F(t)-F^NADPH(t)) is the fluorescence intensity of the test solution at time t, from which is subtracted a background fluorescence level also at time t from a solution with NADPH (which itself is fluorescent, and is present in 10-fold higher concentration than the probe) and with the same protein mixture but without the probe. F^max(t) is the maximum possible fluorescence intensity value at time t, determined by incubation with TCEP (100 μM)) similarly as for the chemical reductant assay. (F(t)−F^NADPH(t))/F^max(t) thus gives the timecourse of fluorescence signal, as a fraction of the maximum possible fluorescence signal. […]

The next experiment has as its system HeLa, A549 and MEF cells. Put plainly: Cellular reduction assay (FIG. 3). It counts as cell-based, human, mouse. Conditions: 100 μM, 1% vol DMSO, cells under ordinary conditions. As to the method: Assay Conditions: Cells were cultured under standard conditions (Gao, L. et al. Cell Chemical Biology 2021, 28, 1-14. https://doi.org/10.1016/j.chembiol.2020.11.007), left to adhere for 24 h, then compounds were added to 100 μM with 1% vol DMSO. Fluorescence timecourse measurements were acquired as in the chemoreductant assay, with all conditions in triplicates.
Data Representation: F(t)-F(0) is the fluorescence intensity signal increase as compared to time zero signal (fluorescence intensity immediately following compound addition, before probe activation can occur), in arbitrary units although with the same detection settings for all probes releasing the same cargo. This corresponds to reduction-triggered cargo release. “ctrf” indicates cells not treated with probes, as a negative control.

The target in experiment [1] is T2, GR/GSH/Grx (glutaredoxin 1, Grx1) (Homo sapiens, UniProt P35754).
T2 sequence (P35754 1-106): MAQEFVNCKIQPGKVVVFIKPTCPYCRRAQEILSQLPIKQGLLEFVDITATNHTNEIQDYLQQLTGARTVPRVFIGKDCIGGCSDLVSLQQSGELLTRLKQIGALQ
Put plainly: Enzymatic activation assay: GR/GSH/Grx1. It counts as biochemical. Conditions: full mixture NADPH/GR/GSH/Grx1.
Text: as §1, §2, §3

In the next experiment the target is T3, TrxR1(U498C) (Homo sapiens, UniProt Q16881).
T3 sequence (Q16881 with tags, fused parts or gaps isoform Q16881-5): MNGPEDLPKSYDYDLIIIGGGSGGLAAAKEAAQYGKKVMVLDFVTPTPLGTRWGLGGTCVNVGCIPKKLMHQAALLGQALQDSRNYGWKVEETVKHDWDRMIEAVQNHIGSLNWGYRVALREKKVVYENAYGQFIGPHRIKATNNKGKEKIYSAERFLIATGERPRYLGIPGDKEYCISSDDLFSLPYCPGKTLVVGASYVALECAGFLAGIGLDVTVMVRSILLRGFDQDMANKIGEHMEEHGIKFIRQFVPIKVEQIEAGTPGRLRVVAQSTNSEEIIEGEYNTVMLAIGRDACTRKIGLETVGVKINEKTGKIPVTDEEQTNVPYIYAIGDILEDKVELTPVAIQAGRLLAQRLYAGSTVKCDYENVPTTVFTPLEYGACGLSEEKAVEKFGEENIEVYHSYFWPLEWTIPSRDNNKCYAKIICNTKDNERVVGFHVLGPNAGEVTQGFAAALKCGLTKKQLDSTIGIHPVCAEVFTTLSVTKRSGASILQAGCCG
In words: Enzymatic activation assay: TrxR1 Secys498Cys mutant. It counts as biochemical. Conditions: NADPH; for cargo release / processing by TrxR1(U498C)/Trx1: TrxR1(U498C) with Trx1.
Text: as §1, §2, §3

The target of another experiment is T4, GR/GSH (Homo sapiens, UniProt P00390).
T4 sequence (P00390 44-522): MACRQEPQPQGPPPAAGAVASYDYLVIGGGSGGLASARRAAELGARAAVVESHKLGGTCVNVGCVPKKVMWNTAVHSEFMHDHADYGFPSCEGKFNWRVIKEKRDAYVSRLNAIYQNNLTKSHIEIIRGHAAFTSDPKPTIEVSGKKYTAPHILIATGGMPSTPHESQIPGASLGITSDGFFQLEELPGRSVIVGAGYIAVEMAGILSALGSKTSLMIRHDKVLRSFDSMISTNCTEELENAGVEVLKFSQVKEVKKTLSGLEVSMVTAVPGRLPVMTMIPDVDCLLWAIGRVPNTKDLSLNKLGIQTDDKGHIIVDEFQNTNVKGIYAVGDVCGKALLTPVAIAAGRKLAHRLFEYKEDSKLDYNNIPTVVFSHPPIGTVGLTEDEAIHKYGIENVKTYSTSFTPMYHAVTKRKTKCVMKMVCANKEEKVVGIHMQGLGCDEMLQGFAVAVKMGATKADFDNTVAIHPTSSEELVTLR
Put plainly: Enzymatic activation assay: GR/GSH. As to conditions: NADPH/GR/GSH. It counts as biochemical.
Text: as §1, §2, §3

Take `O=C(Oc1ccc(Cl)cc1-c1nc2ccc(Cl)cc2c(=O)[nH]1)N1CCC[C@@H]2CSSC[C@@H]21` (racemic) [Compound P2, 4-chloro-2-(6-chloro-4-oxo-3,4-dihydroquinazolin-2-yl)phenyl-(cis)-hexahydro-[1,2]dithiino[4,5-b]pyridine-1(2H)-carboxylate]: the “cargo release / processing by TrxR plus Trx1” value on NADPH/TrxR1/Trx1 was “processed when additional high levels of Trx1 and Trx2 are added”. The “cargo release inside cells (fluorescence signal increase over time)” value with HeLa, A549 and MEF cells is recorded as “do not release cargo inside cells under ordinary conditions”. For the same molecule, the “cargo release / processing by GR/GSH/Grx1” value in experiment [1] was “only processed by high levels of Grx1 and Grx2”. Moreover, on TrxR1(U498C), the “cargo release / processing by TrxR1(U498C)/Trx1” value is “not processed”. In addition, the “cargo release / processing by GR/GSH mixture” value on GR/GSH is given as “resist”.
For the molecule `O=C(Oc1ccc(Cl)cc1-c1nc2ccc(Cl)cc2c(=O)[nH]1)N1CCC[C@@H]2CSSC[C@H]21` (racemic) [Compound P1, 4-chloro-2-(6-chloro-4-oxo-3,4-dihydroquinazolin-2-yl)phenyl-(trans)-hexahydro-[1,2]dithiino[4,5-b]pyridine-1(2H)-carboxylate], on NADPH/TrxR1/Trx1, the “cargo release / processing by TrxR plus Trx1” value is “processed when additional high levels of Trx1 and Trx2 are added”. In addition, the “cargo release inside cells (fluorescence signal increase over time)” value in the experiment on HeLa, A549 and MEF cells is recorded as “do not release cargo inside cells under ordinary conditions”. Besides, the “cargo release / processing by GR/GSH/Grx1” value in experiment [1] was “only processed by high levels of Grx1 and Grx2”. The “cargo release / processing by TrxR1(U498C)/Trx1” value on TrxR1(U498C) was “not processed”. Further, the “cargo release / processing by GR/GSH mixture” value on GR/GSH is “resist”.
For the molecule “4-chloro-2-(6-chloro-4-oxo-3,4-dihydroquinazolin-2-yl)phenyl methyl(2-((2-(methyl amino)ethyl)disulfaneyl)ethyl)carbamate [Compound X19, reference compound]”, the “cargo release / processing by TrxR plus Trx1” value at NADPH/TrxR1/Trx1 is “enhanced reaction kinetics”. In addition, in the experiment with HeLa, A549 and MEF cells, the “cargo release inside cells (fluorescence signal increase over time)” value is reported as “substantially release cargo inside cells cultured under ordinary conditions”. Besides, the “cargo release / processing by GR/GSH/Grx1” value in experiment [1] was “enhanced reaction kinetics”. Further, the “cargo release / degradation by TrxR1(U498C)” value at TrxR1(U498C) (TrxR1(U498C)) is listed as “rapidly degraded”. Moreover, the “cargo release / processing by GR/GSH mixture” value at GR/GSH was “rapidly degraded”.

(Values after patent US20240207414A1, “DISULFIDE-BASED PRODRUG COMPOUND” (Ludwig-Maximilians-Universitat Munchen, priority 2021, published 2024).)
